Data reported in patent publication US8952149B2, “Tricyclic tetrahydroquinoline antibacterial agents” (Zoetis LLC, priority 2012, dated 2015).
≈ marks a conversion by molar mass, not a printed value.

Experiments:
S. pyogenes 02C0203 [1] = assay: Neutropenic soft tissue (thigh abscess) infection model; type: in vivo, CF-1 female mice; settings: thigh tissue 24 hours post-dose
Method: In this example, the in vivo antibacterial efficacy of selected compounds was determined in a neutropenic soft tissue infection model in CF-1 female mice challenged with Streptococcus pyogenes 02C0203. With the exception of modifications discussed here, the murine soft tissue infection model was previously described by Craig et al. (6, 7, 8).
CF-1 female mice were immunosuppressed with oral doses of cyclophosphamide in sterile water on Day-4 (150 mg/kg) and Day-1 (100 mg/kg). Mice were infected intramuscularly (thigh muscle) with 7×10^5 cfu of S. pyogenes 02C0203 in 0.1 ml brain heart infusion broth on Day 0. Two hours post-infection, mice received a single oral dose of selected compounds. The compounds were administered orally from a spray dried dispersion (SDD) in 0.5% (wt/v) methylcellulose (MC), 0.5% (wt/v) hydroxypropyl methylcellulose acetate succinate medium, fine powder (HPMCAS-MF) in 20 mM Tris buffer (pH 7.4). Thigh tissue was collected 24 hours post-dose. Serial ten-fold dilutions of tissue homogenates prepared in sterile phosphate buffered saline were plated on 5% sheep blood agar plates for enumeration of bacterial burden.
(§1) Separate groups of immunosuppressed mice were infected as above and orally dosed 2 hours post-infection with 100 mg/kg of the selected compounds. Thigh tissue samples (10% in PBS) and plasma were collected at 0.5, 1, 2, 4, 8 and 24 hours post-dose (n=3) for quantitation of drug levels. Bacterial burden was quantitated in the thigh tissue samples from treated mice and from infected, untreated mice at each timepoint.

S. pyogenes 02C0203 [2] = assay: In vitro MIC testing by microbroth dilution; type: cell-based, Streptococcus pyogenes; settings: for antibacterial activity (in words): S. pyogenes 02C0203; for MIC: Streptococcus pyogenes, 02C0203, microbroth dilution, 35° C., 16 to 24 hours
Method: Except for clarifying or modifying statements, MIC testing followed procedures recommended by the NCCLS^1-2 or followed the descriptions cited below.
At least the following organisms are included in the screen: S. pyogenes 02C0203. Incubations were at 35° C. Stock bacterial cultures were maintained on Tryptic Soy Agar containing 5% Sheep Blood (BD, Becton Dickinson Microbiology Systems, Cockeysville, Md.), anaerobes were maintained on Anaerobic Blood Agar plates—CDC Formulation (BD), and fastidious organisms were maintained on Chocolate Agar II Plates (BD). Specific conditions of handling are listed below.
Frozen stock cultures were used as the initial source of organisms for performing microbroth dilution MIC testing. Stock cultures were passed on their standard growth medium for at least 1 growth cycle (18 to 24 hours) prior to their use.
Most bacteria, unless otherwise noted, were prepared directly from agar plates in 10 mL aliquots of the appropriate broth medium. Bacterial cultures were adjusted to the opacity of a 0.5 McFarland Standard (optical density value of 0.28-0.33 on a Perkin-Elmer Lambda EZ150 Spectrophotometer Wellesley, Mass., set at a wavelength of 600 nm). The adjusted cultures were diluted 400 fold (0.25 mL inoculum+100 mL broth) in growth media to produce a starting suspension of approximately 5×10^5 colony forming units (CFU)/mL. Unless otherwise noted, bacterial strains were tested in cation adjusted Mueller Hinton Broth (CAMHB).
Compounds were solubilized in DMSO. Drug stock solutions were prepared on the day of testing. Drugs were weight corrected for assay content where necessary.
Microbroth dilution stock plates were prepared in two dilution series, 64 to 0.06 μg drug/mL and 0.25 to 0.00025 μg drug/mL. For the high concentration series, 200 μL of stock solution ([…]) was added to duplicate rows of a 96-well microtiter plate. This was used as the first well in the dilution series. Serial two-fold decremental dilutions were made using a BioMek FX robot (Beckman Coulter Inc., Fullerton, Calif.) with 10 of the remaining 11 wells, each of which contained 100 μL of the appropriate solvent/diluent. Row 12 contained solvent/diluent only and served as the control. For tube one of the low concentration series, 200 µL of an 8 μg/mL stock was added to duplicate rows of a 96-well plate. Serial two-fold dilutions were made as described above.
Daughter plates were spotted (3.2 μL/well) from the stock plates listed above using the BioMek FX robot and were either used immediately or frozen at −70° C. until use.
Aerobic organisms were inoculated (100 μL volumes) into the thawed plates using the BioMek FX robot. The inoculated plates were placed in stacks of no more than 5 and covered with an empty plate. These plates were incubated 16 to 24 hours in ambient atmosphere according to CLSI guidelines^2.
After inoculation and incubation, the degree of bacterial growth was estimated visually with the aid of a Test Reading Mirror (Dynex Technologies 220 16) in a darkened room with a single light shining directly through the top of the microbroth tray. The MIC was the lowest concentration of drug that prevented macroscopically visible growth under the conditions of the test. Testing was performed in duplicate. When the MIC values in duplicate tests varied by 1 well (2-fold), the […] values were reported. If the MICs varied by 2 dilutions, the middle value was reported. […]

[3] = Plasma concentrations in infected mice after an oral dose (LC/MS/MS); type: in vivo; settings: for concentration at 0.5 h / concentration at 1 h / concentration at 2 h / concentration at 4 h / concentration at 8 h / concentration at 24 h: CF-1, mouse, plasma, infected mice (n = 3), oral 100 mg/kg; for oral exposure (in words): mice infected with S. pyogenes 02C0203, 100 mg/kg
Method: (§2) In this example, the plasma concentrations of selected compounds were determined in mice that were infected with S. pyogenes 02C0203 at an oral dose of 100 mg/kg^4. Plasma samples were assayed for selected compounds using LC/MS/MS with multiple reaction monitoring. Free fractions were measured using equilibrium dialysis^5.
as §1

S. pyogenes 02C0203 [4] = assay: AUC/MIC ratios required for efficacy (PK-PD); type: in vivo; settings: free AUC required for efficacy against S. pyogenes 02C0203 in mice
Method: as §2, §1

SMILES	Log10 geometric mean recoverable cfu (S. pyogenes 02C0203 [1]; single oral dose 12.5 mg/kg)	Mean log10 cfu reduction vs. infected controls (S. pyogenes 02C0203 [1]; single oral dose 12.5 mg/kg)	Log10 geometric mean recoverable cfu (S. pyogenes 02C0203 [1]; single oral dose 25 mg/kg)	Mean log10 cfu reduction vs. infected controls (S. pyogenes 02C0203 [1]; single oral dose 25 mg/kg)	Log10 geometric mean recoverable cfu (S. pyogenes 02C0203 [1]; single oral dose 50 mg/kg)	Mean log10 cfu reduction vs. infected controls (S. pyogenes 02C0203 [1]; single oral dose 50 mg/kg)	Log10 geometric mean recoverable cfu (S. pyogenes 02C0203 [1]; single oral dose 100 mg/kg)	Mean log10 cfu reduction vs. infected controls (S. pyogenes 02C0203 [1]; single oral dose 100 mg/kg)	Log10 geometric mean recoverable cfu (S. pyogenes 02C0203 [1]; single oral dose 200 mg/kg)	Mean log10 cfu reduction vs. infected controls (S. pyogenes 02C0203 [1]; single oral dose 200 mg/kg)	antibacterial activity (in words) (S. pyogenes 02C0203 [2])	MIC (S. pyogenes 02C0203 [2])	concentration at 0.5 h [3]	concentration at 1 h [3]	concentration at 2 h [3]	concentration at 4 h [3]	concentration at 8 h [3]	concentration at 24 h [3]	oral exposure (in words) [3]	Target fAUC (S. pyogenes 02C0203 [4])
Cc1cc(-c2cc3c(c(F)c2F)N2C[C@@H](C)O[C@@H](C)[C@@H]2C2(C3)C(=O)NC(=O)NC2=O)on1 (single isomer, unassigned) [Example 2]	6.23	0.47	5.76	0.94	5.07	1.63	2.11	4.59	1.92	4.78										
Cc1coc(-c2cc(F)c3c(c2)CC2(C(=O)NC(=O)NC2=O)[C@H]2[C@H](C)O[C@H](C)CN32)n1 (single isomer, unassigned) [Example 1]	6.17	0.53	5.45	1.25	4.60	2.10	3.49	3.21	2.85	3.85	antibacterial activity	1 µg/mL (≈ 2.33 µM)	13500 ng/mL	13300 ng/mL	21500 ng/mL	24500 ng/mL	7450 ng/mL	176 ng/mL	demonstrated oral exposure	2000 ng·h/mL
Cc1ncc(-c2cc3c(cc2F)N2C[C@@H](C)O[C@@H](C)[C@@H]2C2(C3)C(=O)NC(=O)NC2=O)cn1 [Comparator Compound from the Literature, reference compound]	6.48	−0.11	6.52	−0.07	6.48	−0.11	4.62	−1.97	4.32	−2.27		2 µg/mL (≈ 4.55 µM)	11100 ng/mL	17100 ng/mL	16000 ng/mL	8530 ng/mL	3700 ng/mL	1400 ng/mL		
CCc1coc(-c2cc3c(c(F)c2F)N2C[C@H](C)O[C@H](C)[C@H]2C2(C3)C(=O)NC(=O)NC2=O)n1 (racemic) [Example 9, (2S,4R,4aR)-8-(4-ethyloxazol-2-yl)-9,10-difluoro-2,4-dimethyl-2,4,4a,6-tetrahydro-1H,1′H-spiro[[1,4]oxazino[4,3-a]quinoline-5,5′-pyrimidine]-2′,4′,6′(3′H)-trione]											antibacterial activity	1 µg/mL (≈ 2.17 µM)	19400 ng/mL	19000 ng/mL	23000 ng/mL	22900 ng/mL	18100 ng/mL	2180 ng/mL	demonstrated oral exposure	4000 ng·h/mL
